Test results: ChEMBL document CHEMBL1130502, “Lipopeptide antifungal agents: Amine conjugates of the semi-synthetic pneumocandins L-731,373 and L-733,560” (Bioorg Med Chem Lett, 1997)
≈ marks a conversion by molar mass, not a printed value.

What was measured:
1,3-beta-glucan synthase = 1,3-beta-glucan synthase (Candida glabrata, UniProt F5BCZ9); assay: Inhibition of 1,3-beta-glucan synthase; design: species or system Candida glabrata CBS 138
Mus musculus [1] = species: Mus musculus; assay: […] anti-candida activity expressed as ED99.9 in a mouse model of disseminated candidiasis (TOKA); format: functional
[2] = Acute toxicity in mice after intravenous administration; settings: mouse, in vivo
Candida albicans = assay: Tested for minimum fungicidal concentration (MFC) against Candida albicans (MY 1055); format: functional
Mus musculus [3] = species: Mus musculus; assay: Percentage of mice with complete eradication of candida in kidneys; format: functional, Kidney
Mus musculus [4] = assay: In vivo effective intraperitoneal dose to achieve least 50% survival in a mouse model of disseminated aspergillosis; format: functional; settings: ip

Chain of 1,3-beta-glucan synthase (F5BCZ9 whole entry): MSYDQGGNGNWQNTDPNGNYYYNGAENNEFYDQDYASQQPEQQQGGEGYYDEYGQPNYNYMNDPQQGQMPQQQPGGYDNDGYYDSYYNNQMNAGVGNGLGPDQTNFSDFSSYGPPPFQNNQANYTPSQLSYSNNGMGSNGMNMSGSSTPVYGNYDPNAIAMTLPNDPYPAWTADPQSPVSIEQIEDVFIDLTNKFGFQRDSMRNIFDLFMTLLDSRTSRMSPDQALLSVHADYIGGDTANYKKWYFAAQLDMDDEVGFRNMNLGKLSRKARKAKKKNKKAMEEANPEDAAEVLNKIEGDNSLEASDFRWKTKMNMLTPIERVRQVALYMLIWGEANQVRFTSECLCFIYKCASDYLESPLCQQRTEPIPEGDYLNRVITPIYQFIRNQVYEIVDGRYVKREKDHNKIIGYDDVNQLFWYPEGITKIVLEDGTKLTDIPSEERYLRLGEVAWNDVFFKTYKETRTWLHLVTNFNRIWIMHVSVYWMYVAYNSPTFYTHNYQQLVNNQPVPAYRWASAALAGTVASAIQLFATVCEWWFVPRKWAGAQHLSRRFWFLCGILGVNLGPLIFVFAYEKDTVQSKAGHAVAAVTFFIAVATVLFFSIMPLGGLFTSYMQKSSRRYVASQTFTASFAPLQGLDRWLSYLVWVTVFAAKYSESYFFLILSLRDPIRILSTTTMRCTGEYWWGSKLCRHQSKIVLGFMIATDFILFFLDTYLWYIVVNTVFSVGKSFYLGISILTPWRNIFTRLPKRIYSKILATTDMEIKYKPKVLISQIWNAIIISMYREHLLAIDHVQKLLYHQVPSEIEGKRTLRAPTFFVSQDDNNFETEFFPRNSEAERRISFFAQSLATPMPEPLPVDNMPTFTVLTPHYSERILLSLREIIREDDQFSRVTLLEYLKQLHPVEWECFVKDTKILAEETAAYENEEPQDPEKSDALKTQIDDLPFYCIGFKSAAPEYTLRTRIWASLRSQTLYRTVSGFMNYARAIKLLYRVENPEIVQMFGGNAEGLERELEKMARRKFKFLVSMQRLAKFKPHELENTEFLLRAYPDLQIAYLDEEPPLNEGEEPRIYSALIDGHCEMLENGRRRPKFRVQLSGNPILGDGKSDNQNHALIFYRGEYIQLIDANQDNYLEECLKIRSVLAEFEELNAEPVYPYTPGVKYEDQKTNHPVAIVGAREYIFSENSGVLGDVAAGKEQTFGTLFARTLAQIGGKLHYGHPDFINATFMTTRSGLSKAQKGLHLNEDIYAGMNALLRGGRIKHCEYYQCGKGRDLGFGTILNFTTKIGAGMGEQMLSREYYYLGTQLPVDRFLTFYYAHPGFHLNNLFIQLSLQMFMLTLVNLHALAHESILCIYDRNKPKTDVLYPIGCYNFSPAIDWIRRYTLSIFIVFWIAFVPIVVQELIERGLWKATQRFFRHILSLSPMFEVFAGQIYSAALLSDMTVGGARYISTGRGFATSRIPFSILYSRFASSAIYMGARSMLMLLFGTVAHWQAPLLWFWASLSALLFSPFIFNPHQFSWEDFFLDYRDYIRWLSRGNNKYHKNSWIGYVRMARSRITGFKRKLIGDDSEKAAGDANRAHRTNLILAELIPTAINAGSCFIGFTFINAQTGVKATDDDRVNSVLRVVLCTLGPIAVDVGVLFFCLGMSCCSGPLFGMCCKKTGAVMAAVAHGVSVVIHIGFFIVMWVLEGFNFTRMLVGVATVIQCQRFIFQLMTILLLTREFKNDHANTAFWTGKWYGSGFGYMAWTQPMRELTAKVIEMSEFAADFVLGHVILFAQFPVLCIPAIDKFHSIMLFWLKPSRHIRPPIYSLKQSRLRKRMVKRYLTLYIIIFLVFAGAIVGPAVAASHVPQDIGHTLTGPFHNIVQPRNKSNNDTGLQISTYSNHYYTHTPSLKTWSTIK

Structure (SMILES) | IC50 (1,3-beta-glucan synthase) | ED99.9 (Mus musculus [1]) | Dose [2] | MFC (Candida albicans) | Sterilized (Mus musculus [3]) | ED50 (Mus musculus [4])
CCC(C)CC(C)CCCCCCCCC(=O)NC1C[C@@H](O)[C@@H](O)NC(=O)C2CN(C[C@@H]2O)C(=O)[C@H]([C@H](O)CCNC(=O)CCN)NC(=O)[C@H]([C@H](O)[C@@H](O)c2ccc(O)cc2)NC(=O)C2C[C@@H](O)CN2C(=O)[C@H]([C@@H](C)O)NC1=O (stereo partly specified) | 25 nM | 1.5 mg/kg | 250 mg/kg | 0.125 µg/mL (≈ 0.111 µM) | 100% | 
CCC(C)CC(C)CCCCCCCCC(=O)NC1C[C@@H](O)[C@@H](O)NC(=O)C2CN(C[C@@H]2O)C(=O)[C@H]([C@H](O)CCNC(=O)[C@@H](N)CCCCN)NC(=O)[C@H]([C@H](O)[C@@H](O)c2ccc(O)cc2)NC(=O)C2C[C@@H](O)CN2C(=O)[C@H]([C@@H](C)O)NC1=O (stereo partly specified) | 10 nM | 0.375 mg/kg | 150 mg/kg | < 0.06 µg/mL | 20% | 
CCC(C)CC(C)CCCCCCCCC(=O)NC1C[C@@H](O)[C@@H](O)NC(=O)C2CN(C[C@@H]2O)C(=O)[C@H]([C@H](O)CCNC(=O)[C@@H](N)CN)NC(=O)[C@H]([C@H](O)[C@@H](O)c2ccc(O)cc2)NC(=O)C2C[C@@H](O)CN2C(=O)[C@H]([C@@H](C)O)NC1=O (stereo partly specified) | 30 nM | 1.5 mg/kg | > 250 mg/kg | 1 µg/mL (≈ 0.879 µM) | 100% | > 1.25 mg/kg
CCC(C)CC(C)CCCCCCCCC(=O)NC1C[C@@H](O)[C@@H](O)NC(=O)C2CN(C[C@@H]2O)C(=O)[C@H]([C@H](O)CCNC(=O)CCCCN)NC(=O)[C@H]([C@H](O)[C@@H](O)c2ccc(O)cc2)NC(=O)C2C[C@@H](O)CN2C(=O)[C@H]([C@@H](C)O)NC1=O (stereo partly specified) | 20 nM | 1.5 mg/kg | 250 mg/kg | 0.5 µg/mL (≈ 0.435 µM) | 0% | 
CCC(C)CC(C)CCCCCCCCC(=O)NC1C[C@@H](O)[C@@H](OCCN)NC(=O)C2CN(C[C@@H]2O)C(=O)[C@H]([C@H](O)CCNC(=O)[C@@H](N)CN)NC(=O)[C@H]([C@H](O)[C@@H](O)c2ccc(O)cc2)NC(=O)C2C[C@@H](O)CN2C(=O)[C@H]([C@@H](C)O)NC1=O (stereo partly specified) | 4 nM | 0.375 mg/kg | > 100 mg/kg | 1 µg/mL (≈ 0.847 µM) | 100% | 0.07 mg/kg
CCC(C)CC(C)CCCCCCCCC(=O)NC1C[C@@H](O)[C@@H](O)NC(=O)C2CN(C[C@@H]2O)C(=O)[C@H]([C@H](O)CCNC(C)=O)NC(=O)[C@H]([C@H](O)[C@@H](O)c2ccc(O)cc2)NC(=O)C2C[C@@H](O)CN2C(=O)[C@H]([C@@H](C)O)NC1=O (stereo partly specified) | 300 nM | 12 mg/kg | > 250 mg/kg | 2 µg/mL (≈ 1.83 µM) | 0% | 
CCC(C)CC(C)CCCCCCCCC(=O)NC1C[C@@H](O)[C@@H](O)NC(=O)C2CN(C[C@@H]2O)C(=O)[C@H]([C@H](O)CCNC(=O)CCCCCN)NC(=O)[C@H]([C@H](O)[C@@H](O)c2ccc(O)cc2)NC(=O)C2C[C@@H](O)CN2C(=O)[C@H]([C@@H](C)O)NC1=O (stereo partly specified) | 90 nM | >1.5 mg/kg | 250 mg/kg | 0.5 µg/mL (≈ 0.429 µM) | 0% | 
CCC(C)CC(C)CCCCCCCCC(=O)NC1C[C@@H](O)[C@@H](O)NC(=O)C2CN(C[C@@H]2O)C(=O)[C@H]([C@H](O)CCNC(=O)CCCCCCN)NC(=O)[C@H]([C@H](O)[C@@H](O)c2ccc(O)cc2)NC(=O)C2C[C@@H](O)CN2C(=O)[C@H]([C@@H](C)O)NC1=O (stereo partly specified) |  | >1.5 mg/kg | 200 mg/kg | 2 µg/mL (≈ 1.7 µM) | 0% | 
CCC(C)CC(C)CCCCCCCCC(=O)NC1C[C@@H](O)[C@@H](O)NC(=O)C2CN(C[C@@H]2O)C(=O)[C@H]([C@H](O)CCNC(=O)CN)NC(=O)[C@H]([C@H](O)[C@@H](O)c2ccc(O)cc2)NC(=O)C2C[C@@H](O)CN2C(=O)[C@H]([C@@H](C)O)NC1=O (stereo partly specified) | 15 nM | 0.375 mg/kg | 250 mg/kg | 0.5 µg/mL (≈ 0.451 µM) | 20% | 
